Measured values: patent US7307102B2, “Method of preventing or treating estrogen-dependent diseases and disorders” (Duke University, priority 1997, dated 2007)

Key:
[1] = Uterine wet weight, body weight and uterine histology in ovariectomized rats, 28 day treatment; format: in vivo, rat
Description: FIGS. 8A-8D. […] Photographs were taken at 150× magnification and subsequently enlarged to a final magnification of 600×.
(§1) Animal preparation. […] At sacrifice, animals were euthanized with C02, body weights were recorded and the uteri were removed and weighed. Uterus, vagina and mammary tissue were fixed in 10% neutral buffered formalin. Samples for histologic processing were taken from the mid-point of each uterine horn. Tissue samples were embedded in paraffin, stained with haematoxylin and eosin and evaluated microscopically. Lumbar vertebrae and both left and right tibiae were excised. Total blood cholesterol was measured (Roche Biomedical Laboratories).
In addition to measurements of uterine wet weight, a histological examination of the uteri harvested from the same animals was performed (FIGS. 7A-7F (low magnification) and FIGS. 8A-8D (high magnification)).

[2] = Uterotrophic assay in immature rats
Description: FIG. 5. […] The data shown represent the mean value (±SEM).
Twenty-one day old female Sprague-Dawley rats (30-35 gms) were obtained from Harlan or Taconic Laboratories. Animals were sorted randomly into treatment groups of five, and average weights were recorded for each treatment group. Weights were recorded on each treatment day. […] On day of dosing, drug was diluted in 0.5% methyl cellulose, viscosity of 2% at 25° C.:400 centipoises (Sigma, St. Louis, Mo.)). Oral dosing by gavage was based on a total volume of 10 ml/kg body weight. […] Subcutaneous dosing was based on a total of 2 ml/kg body weight. […] On day 4, animals were sacrificed by C02 asphyxiation, body weights were obtained and uteri were removed, blotted and weighed. Data were expressed as uterine weight/body weight.
In this assay, uterine wet weight was used as a measure of ER-agonist activity in this tissue (FIG. 5).

[3] = Total serum cholesterol in ovariectomized rats; format: in vivo, rat; settings: OVX rats, 28 days, lowest concentration tested, FIG. 4
Description: as §1

## CC/C(=C(\c1ccccc1)c1ccc(/C=C/C(=O)O)cc1)c1ccccc1 [GW5638]
[1]; 90-day old OVX rats, 28 days, doses up to three times that required for bone protection, FIG. 6
  uterotrophic activity (uterine wet weight): minimal uterotrophic activity
[1]; OVX rats, 28 days
  total body weight versus sham operated animals: no significant differences
  uterine epithelial cells, histology: dose-related hypertrophy
  uterine stroma, histology: marginal increase in intercellular connective tissue and ground substance
[1]; OVX rats, highest doses
  stromal response and eosinophilic infiltration at the highest doses: less than observed in estradiol treated rats
[1]; OVX rats, highest doses (3-fold higher than required for bone protection)
  epithelial hypertrophy at the highest doses: comparable to that of estradiol treated uteri
[2]; 21 day old immature rats, in the presence of estradiol
  inhibition of the agonist activity of estradiol in the uterus: could completely inhibit the agonist activity of estradiol
[2]; rat, in vivo, po
  uterotrophic activity at 10 μm/kg/d: inactive
[3]
  total serum cholesterol level: as effective as estradiol in decreasing serum cholesterol levels
